# Results as given in US11478478B2, “2,3-disubstituted 1-acyl-4-amino-1,2,3,4-tetrahydroquinoline derivatives and their use as bromodomain inhibitors” (GLAXOSMITHKLINE INTELLECTUAL PROPERTY (NO.2) LIMITED, priority 2013, dated 2022).
# Biological target: T1, BRD4 BD2 (Homo sapiens, UniProt O60885, Y97A)
# T1 construct: BRD4 (1-477) (Y97A) and (Y390A); made in house; host or cells: E. coli (pET15b vector)
# Assay: TR-FRET binding assay, BRD4 BD2 (BD1-mutated protein)
# Conditions: read-out: pIC50 in the BRD4 BD2 assay (converted)
# Experimental: Time Resolved Fluorescence Resonance Energy Transfer (TR-FRET) Assay Binding was assessed using a time resolved fluorescent resonance energy transfer binding assay. This utilises a 6 His purification tag at the N-terminal of the proteins as an epitope for an anti-6 His antibody labeled with Europium chelate (PerkinElmer AD0111) allowing binding of the Europium to the proteins which acts as the donor fluorophore. A small molecule, high affinity binder of the bromodomains BRD2, BRD3, BRD4 and BRDT has been labeled with Alexa Fluor647 (Reference Compound X) and this acts as the acceptor in the FRET pair.
# In the absence of a competing compound, excitation of the Europium causes the donor to emit at λ618 nm which excites the Alexa labelled bromodomain binding compound leading to an increased energy transfer that is measurable at λ647 nM. In the presence of a sufficient concentration of a compound that can bind these proteins, the interaction is disrupted leading to a quantifiable drop in fluorescent resonance energy transfer.
# The binding of the compounds of formula (I) to Bromodomains BRD2, BRD3, BRD4 and BRDT was assessed using mutated proteins to detect differential binding to either Binding Domain 1 (BD1) or Binding Domain 2 (BD2) on the bromodomain. These single residue mutations in the acetyl lysine binding pocket greatly lower the affinity of the fluoroligand (Reference Compound X) for the mutated domain (>1000 fold selective for the non-mutated domain). Therefore in the final assay conditions, binding of the fluoroligand to the mutated domain cannot be detected and subsequently the assay is suitable to determine the binding of compounds to the single non-mutated bromodomain.
# Recombinant Human Bromodomains [(BRD2 (1-473) (Y113A) and (Y386A), BRD3 (1-435) (Y73A) and (Y348A) BRD4 (1-477) (Y97A) and (Y390A) and BRDT (1-397) (Y66A) and (Y309A)] were expressed in E. coli cells (in pET15b vector for BRD2/3/4 and in pET28a vector for BRDT) with a 6-His tag at the N-terminal. The His-tagged Bromodomain pellet was resuspended in 50 mM HEPES (pH7.5), 300 mM NaCl, 10 mM imidazole & 1 μl/ml protease inhibitor cocktail and extracted from the E. coli cells using sonication and purified using a nickel sepharose high performance column, the proteins were washed and then eluted with a linear gradient of 0-500 mM imidazole with buffer 50 mM HEPES (pH7.5), 150 mM NaCl, 500 mM imidazole, over 20 column volumes. Final purification was completed by Superdex 200 prep grade size exclusion column. Purified protein was stored at −80° C. in 20 mM HEPES pH 7.5 and 100 mM NaCl. Protein identity was confirmed by peptide mass fingerprinting and predicted molecular weight confirmed by mass spectrometry.
# All assay components were dissolved in buffer composition of 50 mM HEPES pH7.4, 50 mM NaCl, 5% Glycerol, 1 mM DTT and 1 mM CHAPS. The final concentration of bromodomain proteins were 10 nM and the Alexa Fluor647 ligand was at Kd. These components were premixed and 5 μl of this reaction mixture was added to all wells containing 50 nl of various concentrations of test compound or DMSO vehicle (0.5% DMSO final) in Greiner 384 well black low volume microtitre plates and incubated in dark for 30 minutes at rt. 5 μl of detection mixture containing 1.5 nM final concentration anti-6His Europium chelate was added to all wells and a further dark incubation of at least 30 minutes was performed. Plates were then read on the Envision platereader, (λex=317 nm, donor λem=615 nm; acceptor λem=665 nm; Dichroic LANCE dual). Time resolved fluorescent intensity measurements were made at both emission wavelengths and the ratio of acceptor/donor was calculated and used for data analysis. All data was normalized to the mean of 16 high (inhibitor control—Example 11 of WO 2011/054846A1) and 16 low (DMSO) control wells on each plate. A four parameter curve fit of the following form was then applied: y=a+((b−a)/(1+(10^/10^)^d) […]
row,IC50,SMILES
1,100 nM,"CC(=O)N1c2ccc(F)cc2[C@H](Nc2ncccc2C(N)=O)[C@@H](C)[C@@H]1C1CC1 [Example 523, 2-(((2S,3R,4R)-1-acetyl-2-cyclopropyl-6-fluoro-3-methyl-1,2,3,4-tetrahydroquinolin-4-yl)amino)nicotinamide]"
2,100 nM,CC(=O)N1c2ccc(C(N)=O)cc2[C@H](Nc2nccc(C3=CCOCC3)n2)[C@@H](C)[C@@H]1C1CC1 [Example 413]
3,100 nM,"CC(=O)N1c2ccc(N3CCOCC3)cc2[C@H](Nc2ccccc2)[C@@H](C)[C@@H]1C (racemic) [Example 70, rac-1-((2S,3R,4R)-2,3-dimethyl-6-morpholino-4-(phenylamino)-3,4-dihydroquinolin-1(2H)-yl)ethanone]"
4,100 nM,"CC(=O)N1c2ccc(N3CCOCC3)cc2[C@H](Nc2ccc(C#N)cc2)[C@@H](C)[C@@H]1C [Example 197, 4-(((2S,3R,4R)-1-acetyl-2,3-dimethyl-6-morpholino-1,2,3,4-tetrahydroquinolin-4-yl)amino)benzonitrile]"
5,100 nM,"CC(=O)N1c2ccc(F)cc2[C@H](Nc2ncccc2C(N)=O)[C@@H](C)[C@@H]1C [Example 527, 2-(((2S,3R,4R)-1-acetyl-6-fluoro-2,3-dimethyl-1,2,3,4-tetrahydroquinolin-4-yl)amino)nicotinamide]"
6,100 nM,"CC[C@@H]1[C@@H](C)[C@H](Nc2ccc(C#N)cc2)c2cc(F)ccc2N1C(C)=O (single isomer, unassigned) [Example 147b]"
7,100 nM,"CC(=O)N1c2ccccc2[C@H](Nc2ccsc2)[C@@H](C)[C@@H]1C (racemic) [Example 12, rac-1-((2S,3R,4R)-2,3-dimethyl-4-(thiophen-3-ylamino)-3,4-dihydroquinolin-1(2H)-yl)ethanone]"
8,100 nM,"CC(=O)N1c2ccc(-c3cn[nH]c3)cc2[C@H](Nc2nccc(C)n2)[C@@H](C)[C@@H]1C1CC1 [Example 582, 1-((2S,3R,4R)-2-cyclopropyl-3-methyl-4-((4-methylpyrimidin-2-yl)amino)-6-(1H-pyrazol-4-yl)-3,4-dihydroquinolin-1(2H)-yl)ethanone]"
9,100 nM,"CC(=O)N1c2ccc(C3=CCOCC3)cc2[C@@H](Nc2ccccn2)[C@H](C)[C@H]1C1CC1 (racemic) [Example 92, rac-1-((2S,3R,4R)-2-cyclopropyl-6-(3,6-dihydro-2H-pyran-4-yl)-3-methyl-4-(pyridin-2-ylamino)-3,4-dihydroquinolin-1(2H)-yl)ethanone]"
10,100 nM,"CC(=O)N1c2ccc(C(N)=O)cc2[C@H](Nc2nccc(C)n2)[C@@H](C)[C@@H]1C1CC1 [Example 291, (2S,3R,4R)-1-acetyl-2-cyclopropyl-3-methyl-4-((4-methylpyrimidin-2-yl)amino)-1,2,3,4-tetrahydroquinoline-6-carboxamide]"
11,1000 to 100000 nM,"CC(=O)N1c2ccc(N3CCNC(C)C3)nc2[C@H](Nc2ccccc2)[C@@H](C)[C@@H]1C1CC1 (mixture of isomers) [Example 107, 1-((rac-2S,3R,4R)-2-cyclopropyyl-3-methyl-6-(3-methylpiperazin-1-yl)-4-(phenylamino)-3,4-dihydro-1,5-naphthyridin-1(2H)-yl)ethanone]"
12,100 nM,"COc1cccc(N[C@H]2c3cc(C(N)=O)ccc3N(C(C)=O)[C@@H](C3CC3)[C@@H]2C)c1 [Example 360, (2S,3R,4R)-1-acetyl-2-cyclopropyl-4-((3-methoxyphenyl)amino)-3-methyl-1,2,3,4-tetrahydroquinoline-6-carboxamide]"
13,100 nM,"CC(=O)N1c2ccccc2[C@H](Nc2ccc(C)cc2)[C@@H](C)[C@@H]1C (racemic) [Example 20, rac-1-((2S,3R,4R)-2,3-dimethyl-4-(p-tolylamino)-3,4-dihydroquinolin-1(2H)-yl)ethanone]"
14,1000 to 100000 nM,"CC(=O)N1c2ccc(N3CCOCC3)cc2[C@H](Nc2ccccc2)[C@@H](C)[C@@H]1C (single isomer, unassigned) [Example 71a]"
